We go through 5 compounds from patent US4596789A, “Proline derivatives” (ICI Americas Inc., priority 1983, dated 1986).

Starred links: 1 amine or outer side, 2 acyl side, 3 side chain; linkers in the order of their positions; H or OH if unused. Non-standard residues stand in square brackets, D forms with d. Residues, ends and D or L forms follow the SMILES beside them. *: point of attachment. Suc = O=C(CCC(=O)[*:2])[*:1]; MeOSuc = COC(=O)CCC(=O)*; Cbz = O=C(OCc1ccccc1)*; Boc = CC(C)(C)OC(=O)*; CO = O=C([*:1])[*:2]

One data set deals with T1, human leukocyte elastase (Homo sapiens, UniProt P08246).
T1 sequence (P08246 30-267): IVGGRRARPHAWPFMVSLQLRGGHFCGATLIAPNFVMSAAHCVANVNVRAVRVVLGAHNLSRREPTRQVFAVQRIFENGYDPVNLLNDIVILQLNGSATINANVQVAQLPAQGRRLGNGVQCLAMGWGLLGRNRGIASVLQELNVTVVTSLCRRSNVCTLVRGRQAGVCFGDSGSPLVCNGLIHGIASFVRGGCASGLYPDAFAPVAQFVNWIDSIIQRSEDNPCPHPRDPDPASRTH
The note with it: reported by Szabo et al. 1982, cited from earlier work.

Data set [1] addresses T2, human leukocyte elastase (HLE) (Homo sapiens, UniProt P08246).
T2 construct: The HLE enzyme used in these studies may be obtained according to B. R. Viscarello et al. in Preparative Biochemistry, Vol. 13 (1983); from tissue; The enzyme was isolated by a cited preparative procedure. b8 says HLE is released from the granules of polymorphonuclear leukocytes
T2 sequence (P08246 30-267): T1 sequence (P08246 30-267)
The experiment in a line: Inhibition of human leukocyte elastase acting on a peptide p-nitroanilide substrate, Ki from Dixon plot. The data set is classed as biochemical. The note with it: room temperature; 16.6% (v/v) DMSO, pH 8.1; substrate methoxysuccinyl-alanyl-alanylprolyl-valine-p-nitroanilide 1.6×10^-4 molar; read-out: Ki, dissociation constant of the inhibitor-HLE complex. As to the method: The potency of compounds of the invention to act as elastase inhibitors was determined by the ability of a compound of the invention to inhibit the action of human leukocyte elastase (HLE) on a low molecular weight peptide substrate. The potency of an inhibitor is evaluated by obtaining a kinetic determination of the dissociation constant, Ki, of the complex formed from the interaction of the inhibitor with HLE. The substrate used was the anilide methoxysuccinyl-alanyl-alanylprolyl-valine-p-nitroanilide as described by K. Nakajima et al. in The Journal of Biological Chemistry, Vol. 254, pages 4027-4032 (1979) and by T. Teshima et al. in The Journal of Biological Chemistry, Vol. 257, No. 9, pages 5085-5091 (1982). The HLE enzyme used in these studies may be obtained according to B. R. Viscarello et al. in Preparative Biochemistry, Vol. 13 (1983).
From HLE enzyme obtained as described in the Viscarello et al reference, a standard rate of production of p-nitroaniline was measured at room temperature spectrophotometrically in the visible spectrum at 410 nanometers, with automatic data acquisition in a Cary 210-Apple III Plus microcomputer system obtained from Varian Associates. Reactions were initiated by injection of a small aliquot (50 or 100 microliters) of a stock solution of the anilide substrate in DMSO into a curvette containing buffer and HLE enzyme. The amount of HLE used is sufficient to produce an initial velocity of about 0.01 OD (optical density) per minute. Final volume was 3.0 ml. Initial velocities of production of p-nitroaniline were determined from linear regression analysis of at least 30 data points (OD410 vs. time) taken during the initial, linear, portion of the reaction. The initial velocity for the HLE sample without any inhibitor being present was obtained and used as a standard for the subsequent determination of the initial velocity of the reaction in the presence of an inhibitor to be tested. The Ki value of a particular inhibitor was determined as follows. To a 3 ml cuvette were added […] of a buffer (9 millimolar sodium phosphate, 10% DMSO (v/v), pH=7.9), 100 microliters of inhibitor solution in DMSO and 20 microliters of HLE stock solution at the same concentration used in the control. After the inhibitor and enzyme solution had equilibrated, the reaction was initiated by the addition of 100 microliters of the stock substrate solution in DMSO. The final solution was 16.6% (v/v) in DMSO, with pH 8.1. The substrate was at an initial concentration of 1.6×10^-4 molar. […]

Data set [2] can be described thus: Pharmacokinetics: serum level of inhibitor after subcutaneous injection. Format: in vivo, Male Syrian hamsters. As to conditions: serum inhibitor concentration vs time. As to the method: Pharmacokinetics: Male Syrian hamsters (80 to 120) g) are injected subcutaneously with the test compound. Prior to injection and at varying time periods thereafter they are lightly anesthetized with ether and blood samples of approximately 0.2 ml each are withdrawn by cardiac puncture. The blood is expressed into 2 ml centrifuge tubes and allowed to clot for one hr. The sample is then centrifuged and the serum removed. Blood samples are taken before (time 0) and 15, 30, 60, 90 and 120 minutes after subcutaneous administration of the test compound in an appropriate vehicle.
Drug levels are determined by first inactivating endogenous elastase inhibitors by incubation of 50 microliters of serum with an equal volume of buffer containing 5 mg/ml bovine pancreatic trypsin for 5 min. […] After an additional 2 min. incubation, the reaction is started by the addition of substrate (100 microliters) (MeOSuc-Ala-Ala-Pro-Val-pNA, 1.6 mM) and the reaction monitored spectrophotometrically at a wavelength of 410 nm. Serum concentrations of the test compounds are determined by the following equation: [formula] where [I], [E] and [S] are the assay concentrations of inhibitor enzyme and substrate respectively, Ki is the inhibition constant of the inhibitor being assayed, Km is the Michaelis constant of the substrate, Vo is the control uninhibited reaction velocity, and Vi is the inhibited reaction velocity. […]

For the compound `CC(C)[C@@H](C=O)NC(=O)[C@@H]1CCCN1C(=O)[C@@H](Cc1ccccc1)NC(=O)CCC(=O)O` [N-succinyl-D-phenylalanyl-L-prolyl-L-valinal] (Suc-[dF]-Pro-Val-aldehyde), on human leukocyte elastase, the “stronger inhibition than the other four aldehydes” value is recorded as 10-100 times. For the same compound, the Ki at human leukocyte elastase (read-out: Ki (HLE inhibition)) was 40 µM.

In the case of `COC(=O)CCC(=O)N[C@@H](CCCCNC(=O)OCc1ccccc1)C(=O)N[C@H](C(=O)N1CCC[C@H]1C(=O)N[C@H](C=O)C(C)C)C(C)C` [Example 8b, N-alpha-Methoxysuccinyl-N-epsilon-benzyloxycarbonyl-L-lysyl-L-valyl-L-prol yl-L-valinal] (MeOSuc-K(Cbz)VPV-aldehyde), in data set [1], the Ki came out at 6 nM.

In the case of `CC(C)[C@H](NC(=O)[C@H](CCCCNC(=O)OCc1ccccc1)NC(=O)OC(C)(C)C)C(=O)N1CCC[C@H]1C(=O)N[C@H](C=O)C(C)C` [Example 1f, N-alpha-t-Butyloxycarbonyl-N-epsilon-benzyloxycarbonyl-L-lysyl-L-valyl-L-p rolyl-L-valinal] (Boc-K(Cbz)VPV-aldehyde), the Ki in data set [1] was 15 nM.

Take `COC(=O)[C@H](CC(C)C)NC(=O)N[C@H](C(=O)N1CCC[C@H]1C(=O)N[C@H](C=O)C(C)C)C(C)C` [Example 32g, N-[1(S)-Carbomethoxy-3-methylbutyl]carbamoyl-L-valyl-L-prolyl-L-valinal] ({OMe-Leu-CO}-Val-Pro-Val-aldehyde): the Ki in data set [1] is 94 nM.

With `CC(C)[C@H](NC(=O)[C@H](CCCCNC(=O)OCc1ccccc1)NC(=O)CCC(=O)O)C(=O)N1CCC[C@H]1C(=O)N[C@H](C=O)C(C)C` [Example 5b, N-alpha-Succinyl-N-epsilon-benzyloxycarbonyl-L-lysyl-L-valyl-L-prolyl-L-va linal] (Suc-K(Cbz)VPV-aldehyde), the “activity in animals as measured by the pharmacokinetics test” value in data set [2] was “good activity in animals”. Moreover, the Ki in data set [1] is 30 nM.

By Ki is commonly meant a dissociation constant, usually derived from enzyme kinetics or from competition with a known ligand.
